Target: T1, TRPM7 (Mus musculus, UniProt Q923J1)
T1 construct: expressed in transfected cells; host or cells: HEK-293 tSA (HEK-293T) cells, transient transfection with Lipofectamine 2000
Assay: PI uptake cell death assay in TRPM7-expressing HEK-293 cells (type of assay from Example 1)
Format: cell-based, murine
Text: The TRPM7 channel provides a pathway for mono- and divalent cations into the cell, and is unique in that it contains a functional C-terminal α-kinase domain. […] The induction of chemical anoxia in host cells such as recombinant HEK293 cells can be used to activate TRPM7. This activation is detectable with the use measurements of cellular calcium accumulation. This is achievable with the use of a fluorescent calcium indicator. Alternatively, this activation can also be measured using radiolabelled Ca2+ (^45Ca^2+) as described previously by Sattler et al. (Sattler et al., 1998) and Aarts et al. (Aarts et al., 2003).
Hoechst 33342 was purchased as a 10 mg/mL solution in water (Molecular Probes Inc., Eugene, Oreg.). Propidium iodide (PI) was purchased as a powder and prepared by dissolving in PBS at 1 mg/mL. PI solutions were stored at 4° C. until use. Hoechst and PI were added directly to cell culture to 5 μg/mL and 10 μg/mL respectively. Cells were incubated at room temperature or at 37° C. for 10 minutes to allow for adequate uptake, and fluorescence observed using a NIKON Eclipse TE2000 inverted microscope and TE-FM Epi-Fluorescence attachment (Nikon Canada).
Untransfected cells or cells transfected with the TRPM7/pTracer or ΔPDZ/pTracer construct were plated onto 24-well plates, 24-hours post-transfection. Untransfected cells were plated at 0.75×10^6 cells/well and transfected cells at 1×10^6 cells/well. The plates were coated with poly-D-lysine to strengthen cell adhesion and to minimize cell loss during washes. Cells were loaded by incubation with 5 μM fluo-3 AM and 0.02% pluronic in HBSS at 37° C. for 30 minutes. Following loading, cells were washed with an aglycaemic HBSS containing, in mM: 20 N-methyl-D-glucamine (NMDG), 121 NaCl, 5 KCl, 10 HEPES acid, 10 HEPES-Na salt, 3 NaHCO3, 1 Na-pyruvate, and 1.8 CaCl2, pH adjusted to 7.4 with HCl. Calcium uptake, as assessed by fluo-3 fluorescence, was measured in response to 0, 5, 10, 15, 20, or 25 mM sodium cyanide (NaCN; Mallinckrodt Baker Inc., Phillipsburg, N.J.) dissolved in aglycaemic HBSS. A 250 mM NaCN stock was prepared in water and stored at room temperature for up to 2 weeks. Measurements of fluo-3 fluorescence were taken over a 2 hour period at 10 minutes intervals at room temperature (22-25° C.). Calcium uptake assays were performed 48 hours post-transfection.
Cell death, as assessed by PI uptake, was examined at the end of the 2 hour calcium uptake assay. Cells were stained with 10 μg/mL PI and PI fluorescence measured using the Fluoroskan microplate reader (λ excitation=590 nm, λ emission=630 nm) and accompanying Ascent software (Thermo Electron Corp.). To obtain a reading of maximal fluorescence (Fmax), 0.5% Triton X-100 was added to each well and allowed to incubate for 20 minutes. Cell death assays were performed 48 hours post-transfection.
Data was entered into Excel (Microsoft, Seattle, Wash.) or SigmaPlot (SPSS Inc., Chicago, Ill.) for analysis. Pooled data are presented as the mean of at least 3 separate experiments±sem. Calcium uptake is expressed as a fraction of baseline uptake: ΔFt=(Ft−Fo)/Fo where Ft is the fluorescence at time t, and Fo is the fluorescence at baseline. Cell death is expressed as a percentage of total cell death: cell death (%)=Ft/Fmax×100 where Ft is the fluorescence at time t and Fmax is the maximal fluorescence obtained by permeabilization with Triton X-100. Concentration-response curves were fit by nonlinear regression with a 4 parameter logistic curve represented by the following equation: y=min+{(max−min)/[1+(x/EC50)n]} where y is the response at concentration x, min is the minimal response, max is the maximal response, EC50 is the concentration required for half-maximal response, and n is the Hill slope. Statistical analysis of data was carried out with a two-tailed Student's t test, or a one-way analysis of variance (ANOVA) followed by post hoc pairwise multiple comparisons testing using the Holm-Sidak method, where appropriate. […]

[1] = Table X, the lower the number, the more potent in protecting against cell death
[2] = Table X, the lower the number, the more potent
[3] = Table Y, commercially available compounds

T1 sequence (Q923J1 whole entry): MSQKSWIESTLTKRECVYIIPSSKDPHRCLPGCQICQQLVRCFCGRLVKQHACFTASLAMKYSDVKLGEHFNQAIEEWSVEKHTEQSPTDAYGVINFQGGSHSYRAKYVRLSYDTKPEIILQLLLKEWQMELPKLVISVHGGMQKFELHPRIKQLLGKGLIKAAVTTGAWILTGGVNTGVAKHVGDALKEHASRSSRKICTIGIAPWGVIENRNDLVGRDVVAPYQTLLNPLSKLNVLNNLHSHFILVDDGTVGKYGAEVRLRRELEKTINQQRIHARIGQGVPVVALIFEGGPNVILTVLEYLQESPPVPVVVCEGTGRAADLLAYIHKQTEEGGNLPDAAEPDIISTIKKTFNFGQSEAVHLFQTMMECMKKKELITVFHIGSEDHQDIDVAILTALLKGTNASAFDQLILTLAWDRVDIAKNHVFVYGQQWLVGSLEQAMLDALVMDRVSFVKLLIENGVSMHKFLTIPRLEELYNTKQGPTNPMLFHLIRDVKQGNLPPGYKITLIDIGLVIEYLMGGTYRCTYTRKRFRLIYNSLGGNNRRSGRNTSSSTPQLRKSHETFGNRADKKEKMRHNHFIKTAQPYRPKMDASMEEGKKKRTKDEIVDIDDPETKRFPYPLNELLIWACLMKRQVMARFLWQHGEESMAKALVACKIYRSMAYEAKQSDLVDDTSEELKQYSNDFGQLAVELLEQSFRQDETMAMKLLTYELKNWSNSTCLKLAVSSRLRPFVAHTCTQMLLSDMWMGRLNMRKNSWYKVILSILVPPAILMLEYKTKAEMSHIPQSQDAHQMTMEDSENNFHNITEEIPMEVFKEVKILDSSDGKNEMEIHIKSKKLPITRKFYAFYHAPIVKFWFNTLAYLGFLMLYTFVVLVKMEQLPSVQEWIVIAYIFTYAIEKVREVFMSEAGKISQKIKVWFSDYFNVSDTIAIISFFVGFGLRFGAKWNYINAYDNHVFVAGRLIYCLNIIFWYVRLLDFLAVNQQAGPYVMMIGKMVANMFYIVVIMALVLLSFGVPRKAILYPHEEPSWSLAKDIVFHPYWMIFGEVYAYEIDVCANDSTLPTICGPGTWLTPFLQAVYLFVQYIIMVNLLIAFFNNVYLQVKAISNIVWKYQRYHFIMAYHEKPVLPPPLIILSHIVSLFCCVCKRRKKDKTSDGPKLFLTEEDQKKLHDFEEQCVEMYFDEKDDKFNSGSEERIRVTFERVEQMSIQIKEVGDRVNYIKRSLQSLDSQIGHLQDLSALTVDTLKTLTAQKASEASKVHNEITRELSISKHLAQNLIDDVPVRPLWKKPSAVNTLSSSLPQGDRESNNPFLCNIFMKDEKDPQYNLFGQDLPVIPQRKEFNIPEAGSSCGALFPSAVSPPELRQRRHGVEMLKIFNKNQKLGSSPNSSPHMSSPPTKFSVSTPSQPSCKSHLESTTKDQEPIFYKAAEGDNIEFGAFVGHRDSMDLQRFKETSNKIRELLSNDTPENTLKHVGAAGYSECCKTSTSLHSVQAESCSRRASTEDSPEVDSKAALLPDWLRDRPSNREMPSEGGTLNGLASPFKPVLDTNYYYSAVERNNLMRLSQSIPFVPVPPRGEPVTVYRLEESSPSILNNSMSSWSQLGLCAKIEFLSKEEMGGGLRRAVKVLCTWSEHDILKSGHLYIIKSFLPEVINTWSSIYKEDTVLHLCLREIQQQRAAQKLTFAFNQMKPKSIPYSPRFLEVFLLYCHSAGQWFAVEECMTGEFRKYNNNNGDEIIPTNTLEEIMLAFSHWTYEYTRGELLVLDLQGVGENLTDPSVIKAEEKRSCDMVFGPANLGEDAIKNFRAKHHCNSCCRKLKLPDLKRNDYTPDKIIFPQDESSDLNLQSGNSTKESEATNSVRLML

SMILES | Normalized ratio of PI uptake (5 μM) [1] | Normalized ratio of PI uptake (10 μM) [2] | IC50 (Table X) [µM] | Normalized ratio of PI uptake (5 μM) [3] | Normalized ratio of PI uptake (10 μM) [3] | IC50 [3] [µM]
COc1cc(OC)c2c(C)c(Cc3cccc(Cl)c3)c(=O)[nH]c2c1 [Compound 94] | 0.073 | 0.042 | 0.65 | – | – | –
Cc1ccc(N(Cc2ccncc2)C(=O)c2sc3ccccc3c2Cl)c(C)c1 [Compound 98] | 0.36 | 0.067 | 2.53 | – | – | –
COc1ccc(C)c(N(Cc2cccc(C)n2)C(=O)c2sc3ccccc3c2Cl)c1 [Compound 102] | 0.206 | 0.059 | 1.61 | – | – | –
COc1ccc(C)c(N(CC(=O)c2cccs2)C(=O)c2sc3ccccc3c2Cl)c1 [Compound 103] | 0.444 | 0.312 | 0.81 | – | – | –
Cc1ccc(N(Cc2ccc3ccccc3n2)C(=O)c2sc3ccccc3c2Cl)c(C)c1 [Compound 104] | 0.307 | 0.094 | 0.98 | – | – | –
COc1ccc(C)c(N(Cc2ccc3ccccc3n2)C(=O)c2sc3ccccc3c2Cl)c1 [Compound 105] | 0.07 | 0.17 | 0.86 | – | – | –
Cc1ccc(N(Cc2cccnc2)C(=O)c2sc3ccccc3c2Cl)c(C)c1 [Compound 106] | 0 | 0.054 | 1.2 | – | – | –
COc1cc2ccnc(-c3sc4ccccc4c3Cl)c2cc1OC [Compound 108] | 0.038 | 0.11 | 1.09 | – | – | –
COc1cccc2c1CCN=C2c1sc2ccccc2c1Cl [Compound 110] | 0.037 | 0.06 | 1.38 | – | – | –
Fc1cccc2c1CCN=C2c1sc2ccccc2c1Cl [Compound 112] | 0.666 | 0.244 | – | – | – | –
Cc1cccc2sc(C3=NCCc4ccc(Cl)cc43)c(Cl)c12 [Compound 116] | 0.788 | 0.358 | 4.75 | – | – | –
COc1ccc2c(c1)C(c1sc3ccccc3c1Cl)NCC2 (stereo not shown) [Compound 124] | 0 | 0.06 | 1.13 | – | – | –
Clc1cccc2c1CCNC2c1sc2ccccc2c1Cl (stereo not shown) [Compound 125] | 0.363 | 0.122 | 4.69 | – | – | –
COc1cc2c(cc1OC)C(c1sc3cc(OC)c(OC)cc3c1Cl)NCC2 (stereo not shown) [Compound 126] | 0.012 | 0.059 | 1.03 | – | – | –
Cc1cccc2sc(C3NCCc4c(F)cccc43)c(Cl)c12 (stereo not shown) [Compound 127] | 0.038 | 0.044 | 0.93 | – | – | –
COc1ccc2c(c1)C(c1sc3cccc(C)c3c1Cl)NCC2 (stereo not shown) [Compound 128] | 0.01 | 0.06 | 0.43 | – | – | –
CCN1CCc2cc(OC)c(OC)cc2C1c1sc2ccccc2c1Cl (stereo not shown) [Compound 129] | 0.05 | 0.07 | 2.23 | – | – | –
COc1cc(OC)c2c(C)c(Cc3ccc(Cl)c(Cl)c3)c(=O)[nH]c2c1 [Compound 130] | 0.1 | 0.06 | 0.93 | – | – | –

SMILES | Normalized ratio of PI uptake (5 μM) [1] | Normalized ratio of PI uptake (10 μM) [2] | IC50 (Table X) [µM] | Normalized ratio of PI uptake (5 μM) [3] | Normalized ratio of PI uptake (10 μM) [3] | IC50 [3] [µM]
CCCc1c(Cc2ccc(Cl)c(Cl)c2)c(=O)[nH]c2cc(OC)cc(OC)c12 [Compound 132] | 0.73 | 0.1 | 4.46 | – | – | –
Cc1c(Cc2c(F)cccc2Cl)c(=O)[nH]c2cc(O)cc(O)c12 [Compound 133] | 0.367 | 0.123 | 3.31 | – | – | –
CCCc1c(Cc2cccc(Cl)c2)c(=O)[nH]c2cc(O)cc(O)c12 [Compound 134] | 0.564 | 0.305 | – | – | – | –
CCCc1c(Cc2ccc(Cl)c(Cl)c2)c(=O)[nH]c2cc(O)cc(O)c12 [Compound 136] | 0.534 | 0.238 | 18.4 | – | – | –
Cc1c(Cc2c(Cl)cccc2Cl)c(=O)[nH]c2cc(O)cc(O)c12 [Compound 137] | 0.575 | 0.296 | 8.5 | – | – | –
COc1cc(OC)c2c(C)c(Cc3ccc(F)cc3)c(=O)[nH]c2c1 [Compound 138] | 0.034 | 0.026 | 0.47 | – | – | –
Cc1c(Cc2cccc(Cl)c2)c(=O)[nH]c2cc(O)cc(O)c12 [Compound 140] | 0.487 | 0.062 | 11.1 | – | – | –
O=C(c1sc2ccccc2c1Cl)N(Cc1ccccc1)c1ccccc1 [MCC1879 #5, reference compound] | – | – | – | 0.108 | 0.062 | 1.77
Cc1c(Cc2c(Cl)cccc2Cl)c(=O)oc2cc(O)c(Cl)cc12 [RJF00028SC #11, reference compound] | – | – | – | 0.233 | 0.136 | 3.16
CCCc1c(Cc2c(F)cccc2Cl)c(=O)oc2cc(O)ccc12 [RJF01538SC #14, reference compound] | – | – | – | 0.16 | 0.057 | 2.78
Cc1c(Cc2ccc(F)cc2)c(=O)oc2cc(O)ccc12 [RJF01910SC #10, reference compound] | – | – | – | 0.465 | 0.261 | 4.15
Cc1c(Cc2ccccc2)c(=O)oc2c(CN(C)C)c(O)ccc12 [STOCK1N- 36829 #3, reference compound] | – | – | – | 0.262 | 0.102 | 4.72
Cc1c(Cc2ccccc2)c(=O)oc2cc(O)cc(O)c12 [STOCK1N- 70089 #1, reference compound] | – | – | – | 0.181 | 0.005 | 3.16
CCN(CC)Cc1c(O)ccc2c(C)c(Cc3ccccc3)c(=O)oc12 [STOCK4S- 10213 #1, reference compound] | – | – | – | 0.398 | 0.242 | 4.3
Cc1c(Cc2ccccc2)c(=O)oc2cc(O)c(Cl)cc12 [STOCK6S- 31467 #2, reference compound] | – | – | – | 0.472 | 0.1 | 12.6
O=C(NC1CCOc2ccccc21)c1cc2ccccc2[nH]1 (stereo not shown) [T6749380 #12, reference compound] | – | – | – | 0.043 | 0.029 | 2.8
CC1c2ccsc2CCN1C(=O)c1c(Cl)c2ccccc2n1C (stereo not shown) [T6857127 #7, reference compound] | – | – | – | 0 | 0 | 0.8
CC1c2ccsc2CCN1C(=O)c1[nH]c2ccccc2c1Cl (stereo not shown) [T6899791 #8, reference compound] | – | – | – | 0 | 0 | 0.7
